Experimental findings from patent US12630521B2, “Arylamides and methods of use thereof” (Genzyme Corporation, priority 2019, dated 2026) are described below.

The structures appear in SMILES notation.

For experiment [1], the target named is T1, CFTR (ΔF508 homozygous CF-HBE cells) (Homo sapiens, UniProt P13569, DEL508-508).
T1 construct: Primary human bronchial epithelial cells from a ΔF508 homozygous CF donor; host or cells: primary CF-HBE cells (ΔF508/ΔF508 donor)
Put plainly: TECC24 AUC fold over DMSO @10 uM: CFTR-mediated transepithelial chloride transport in primary CF-HBE cells. The class given is cell-based. The note with it: 10 μM test agent, 48 hours, forskolin-stimulated IEQ AUC divided by vehicle AUC. A digest of the protocol: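 Primary ΔF508-homozygous CF bronchial epithelial cells were exposed to test agent for 48 h at 36.5° C, then VT and TEER were recorded with benzamil (10 μM), forskolin (10 μM) stimulation and CFTR inhibitor-172 (20 μM) at the end. AUC of equivalent Cl- current between forskolin and inhibitor is expressed as fold over DMSO vehicle.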

Experiment [2] concerns the target T2, human Cystic Fibrosis Transmembrane Conductance Regulator (CFTR) harboring the ΔF508 mutation (Homo sapiens, UniProt P13569, DEL508-508).
T2 construct: expressed in transfected cells; host or cells: H441 carcinoma cell line (G418 selection)
As to the kind of experiment: H441 cell Emax and EC50: HRP-tagged ΔF508-CFTR cell-surface luminescence assay. It counts as cell-based. Conditions: H441 cells expressing HRP-tagged ΔF508-CFTR, 27° C. for two nights; for EC50: 15-point dose-response; for Emax: NCI-H441, % of maximum VX809 signal. A digest of the protocol: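 H441 cells expressing ΔF508-CFTR with HRP fused in extracellular loop 4 (CMV promoter), ~10K cells/well, 15-point dose range 24.5 to 0.001 μM, incubated at 27° C. for two nights. Surface CFTR read by Luminata Forte luminescence; Emax as % of maximum VX809 signal, plus EC50.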

T1 sequence (P13569 with tags, fused parts or gaps DEL508-508): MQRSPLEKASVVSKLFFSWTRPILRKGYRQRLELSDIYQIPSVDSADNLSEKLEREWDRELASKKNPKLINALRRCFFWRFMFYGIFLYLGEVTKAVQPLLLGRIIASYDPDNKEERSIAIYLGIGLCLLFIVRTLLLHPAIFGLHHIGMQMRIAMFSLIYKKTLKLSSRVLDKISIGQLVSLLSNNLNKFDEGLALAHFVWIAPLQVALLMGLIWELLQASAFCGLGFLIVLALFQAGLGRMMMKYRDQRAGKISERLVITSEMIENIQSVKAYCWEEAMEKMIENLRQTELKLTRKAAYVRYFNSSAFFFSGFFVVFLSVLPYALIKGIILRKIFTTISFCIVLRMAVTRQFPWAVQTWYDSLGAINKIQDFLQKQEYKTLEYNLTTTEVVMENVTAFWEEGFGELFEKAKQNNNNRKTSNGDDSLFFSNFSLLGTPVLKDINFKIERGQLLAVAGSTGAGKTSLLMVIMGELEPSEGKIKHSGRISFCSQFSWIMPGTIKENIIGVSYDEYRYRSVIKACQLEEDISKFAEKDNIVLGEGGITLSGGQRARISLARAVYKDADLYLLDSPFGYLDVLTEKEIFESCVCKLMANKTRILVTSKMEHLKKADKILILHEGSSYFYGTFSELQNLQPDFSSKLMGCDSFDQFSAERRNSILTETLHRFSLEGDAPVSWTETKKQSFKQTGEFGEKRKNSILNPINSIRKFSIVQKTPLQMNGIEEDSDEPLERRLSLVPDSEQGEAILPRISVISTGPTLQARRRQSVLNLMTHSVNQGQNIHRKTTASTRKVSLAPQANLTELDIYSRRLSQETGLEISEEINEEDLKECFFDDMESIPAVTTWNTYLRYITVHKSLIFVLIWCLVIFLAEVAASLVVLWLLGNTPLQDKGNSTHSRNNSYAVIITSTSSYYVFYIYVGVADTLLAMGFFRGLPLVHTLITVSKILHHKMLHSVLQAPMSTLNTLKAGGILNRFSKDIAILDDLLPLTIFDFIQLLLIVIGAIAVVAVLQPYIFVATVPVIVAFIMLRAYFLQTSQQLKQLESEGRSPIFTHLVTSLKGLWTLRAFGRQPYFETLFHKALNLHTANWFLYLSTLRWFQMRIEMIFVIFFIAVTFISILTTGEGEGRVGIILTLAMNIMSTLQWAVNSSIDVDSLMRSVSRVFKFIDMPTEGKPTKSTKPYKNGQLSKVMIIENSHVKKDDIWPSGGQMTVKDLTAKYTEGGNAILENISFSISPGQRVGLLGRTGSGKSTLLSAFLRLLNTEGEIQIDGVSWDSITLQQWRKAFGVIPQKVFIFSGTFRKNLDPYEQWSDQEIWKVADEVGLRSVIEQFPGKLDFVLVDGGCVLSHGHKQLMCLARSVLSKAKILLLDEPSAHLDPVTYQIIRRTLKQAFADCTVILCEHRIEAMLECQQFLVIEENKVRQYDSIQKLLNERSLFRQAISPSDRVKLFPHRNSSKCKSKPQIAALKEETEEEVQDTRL
T2 sequence (P13569 with tags, fused parts or gaps DEL508-508): as above

`CCC(C)(C)[C@H](NC(=O)c1ccc2sc(C)cc2c1OCc1ccc(C(F)(F)F)cc1)C(=O)O` [Compound 33-24, (2S)-3,3-dimethyl-2-(2-methyl-4-((4-(trifluoromethyl)benzyl)oxy)-benzo[b]thiophene-5-carboxamido)pentanoic acid]: in experiment [1], the “TECC24 AUC fold over DMSO” value is given as “A (“A” refers to AUC @10 μM > 6)”. Moreover, in experiment [2], the EC50 stood at 0.412 µM and the maximum response (Emax) amounted to 270%.
As for `CCC(C)(C)[C@H](NC(=O)c1ccc2sc(C(F)(F)F)cc2c1OCc1ccc(C(F)(F)F)cc1)C(=O)O` [Compound 33-25, (2S)-3,3-dimethyl-2-(2-(trifluoromethyl)-4-((4-(trifluoromethyl)benzyl)oxy)-benzo[b]thiophene-5-carboxamido)pentanoic acid], in experiment [1], the “TECC24 AUC fold over DMSO” value is “A (“A” refers to AUC @10 μM > 6)”. In experiment [2], this compound gave an EC50 of 0.577 µM and a maximal response (Emax) of 200%.
The matching figures for `CCc1cc2ccc(C(=O)N[C@H](C(=O)O)C(C)(C)C)c(OCc3ccc(OC(F)(F)F)cc3)c2s1` [Compound 33-26, (2S)-2-(2-ethyl-7-((4-(trifluoromethoxy)benzyl)oxy)-benzo[b]thiophene-6-carboxamido)-3,3-dimethylbutanoic acid]: “B (“B” refers to AUC @10 μM between 4-6)”, 1.09 µM and 197%.
The matching figures for `CCc1cc2c(OCc3ccc(C(F)(F)F)cc3)c(C(=O)N[C@H](C(=O)O)C(C)(C)CC)ccc2s1` [Compound 33-27, (2S)-2-(2-ethyl-4-((4-(trifluoromethyl)benzyl)oxy)-benzo[b]thiophene-5-carboxamido)-3,3-dimethylpentanoic acid]: “A (“A” refers to AUC @10 μM > 6)”, 0.309 µM and 262%.
In the case of `CCC(C)(C)[C@H](NC(=O)c1ccc2cc(C(F)(F)F)sc2c1OCc1ccc(C(F)(F)F)cc1)C(=O)O` [Compound 33-28, (2S)-3,3-dimethyl-2-(2-(trifluoromethyl)-7-((4-(trifluoromethyl)benzyl)oxy)-[b]thiophene-6-carboxamido)pentanoic acid], the “TECC24 AUC fold over DMSO” value in experiment [1] was “A (“A” refers to AUC @10 μM > 6)”. In experiment [2], the EC50 was 0.562 µM and the maximum response (Emax) is 130%.
With `CCC(C)(C)[C@H](NC(=O)c1ccc2cc(C(F)(F)F)sc2c1OCc1ccc(OC(F)(F)F)cc1)C(=O)O` [Compound 33-29, (2S)-3,3-dimethyl-2-(7-((4-(trifluoromethoxy)benzyl)oxy)-2-(trifluoromethyl)-benzo[b]thiophene-6-carboxamido)pentanoic acid], in experiment [1], the “TECC24 AUC fold over DMSO” value is “B (“B” refers to AUC @10 μM between 4-6)”. In experiment [2], this compound returned an EC50 of 0.854 µM and a maximum response (Emax) of 152%.
For `CCC(C)(C)[C@H](NC(=O)c1ccc2sc(C)cc2c1OCc1ccc(OC(F)(F)F)cc1)C(=O)O` [Compound 33-30, (2S)-3,3-dimethyl-2-(2-methyl-4-((4-(trifluoromethoxy)benzyl)oxy)-benzo[b]thiophene-5-carboxamido)pentanoic acid] the same measures were “A (“A” refers to AUC @10 μM > 6)”, 0.102 µM and 263%.
For `CC(C)c1cc2ccc(C(=O)N[C@H](C(=O)O)C(C)(C)C)c(OCc3ccc(C(F)(F)F)cc3)c2s1` [Compound 33-31, (2S)-2-(2-isopropyl-7-((4-(trifluoromethyl)benzyl)oxy)-benzo[b]thiophene-6-carboxamido)-3,3-dimethylbutanoic acid] the same measures were “C (“C” refers to AUC @10 μM < 4)”, 0.532 µM and 131%.
As to `CCC(C)(C)[C@H](NC(=O)c1ccc2cc(CCC(C)C)sc2c1OCc1ccc(C(F)(F)F)cc1)C(=O)O` [Compound 33-32, (2S)-2-(2-isopentyl-7-((4-(trifluoromethyl)benzyl)oxy)-benzo[b]thiophene-6-carboxamido)-3,3-dimethylpentanoic acid], in experiment [1], the “TECC24 AUC fold over DMSO” value is on record as “B (“B” refers to AUC @10 μM between 4-6)”. Moreover, in experiment [2], the concentration for a half-maximal effect (EC50) stood at 0.277 µM and the maximum response (Emax) worked out at 168%.
The matching figures for `CC(C)(C)[C@H](NC(=O)c1ccc2cc(Cl)sc2c1OCc1ccc(C(F)(F)F)cc1)C(=O)O` [Compound 33-33, (2S)-2-(2-chloro-7-((4-(trifluoromethyl)benzyl)oxy)-benzo[b]thiophene-6-carboxamido)-3,3-dimethylbutanoic acid]: “B (“B” refers to AUC @10 μM between 4-6)”, 0.503 µM and 177%.
For `CC(C)c1cc2c(OCc3ccc(C(F)(F)F)cc3)c(C(=O)N[C@H](C(=O)O)C(C)(C)C)ccc2s1` [Compound 33-34, (2S)-2-(2-isopropyl-4-((4-(trifluoromethyl)benzyl)oxy)-benzo[b]thiophene-5-carboxamido)-3,3-dimethylbutanoic acid] the same measures were “A (“A” refers to AUC @10 μM > 6)”, 0.637 µM and 238%.
On to `CCC(C)(C)[C@H](NC(=O)c1ccc2sc(C(F)(F)F)cc2c1OCc1ccc(OC(F)(F)F)cc1)C(=O)O` [Compound 33-35, (2S)-3,3-dimethyl-2-(4-((4-(trifluoromethoxy)benzyl)oxy)-2-(trifluoromethyl)-benzo[b]thiophene-5-carboxamido)pentanoic acid], for which the “TECC24 AUC fold over DMSO” value in experiment [1] is on record as “A (“A” refers to AUC @10 μM > 6)”. Moreover, in experiment [2], the midpoint of the response, the EC50, lay at 0.678 µM and the Emax turned out to be 199%.
The matching figures for `CCC(C)(C)[C@H](NC(=O)c1ccc2sc(C(F)F)cc2c1OCc1ccc(C(F)(F)F)cc1)C(=O)O` [Compound 33-36, (2S)-2-(2-(difluoromethyl)-4-((4-(trifluoromethyl)benzyl)oxy)-benzo[b]thiophene-5-carboxamido)-3,3-dimethylpentanoic acid]: “A (“A” refers to AUC @10 μM > 6)”, 0.75 µM and 165%.
The matching figures for `CCC(C)(C)[C@H](NC(=O)c1ccc2sc(Cl)c(C)c2c1OCc1ccc(OC(F)(F)F)cc1)C(=O)O` [Compound 34-1, (S)-2-(2-chloro-3-methyl-4-((4-(trifluoromethoxy)benzyl)oxy)-benzo[b]thiophene-5-carboxamido)-3,3-dimethylpentanoic acid]: “A (“A” refers to AUC @10 μM > 6)”, 0.358 µM and 179%.
For `Cc1c(Cl)sc2ccc(C(=O)N[C@H](C(=O)O)C3(C)CCC3)c(OCc3ccc(C(F)(F)F)cc3)c12` [Compound 34-2, (S)-2-(2-chloro-3-methyl-4-((4-(trifluoromethyl)benzyl)oxy)-benzo[b]thiophene-5-carboxamido)-2-(1-methylcyclobutyl)acetic acid], the “TECC24 AUC fold over DMSO” value in experiment [1] is recorded as “A (“A” refers to AUC @10 μM > 6)”. Also, in experiment [2], a half-maximal response (EC50) required 1.25 µM and the maximal response (Emax) is 133%.
The matching figures for `CCC(C)(C)[C@H](NC(=O)c1ccc2sc(Cl)c(C)c2c1OCc1ccc(C(F)(F)F)cc1)C(=O)O` [Compound 34-3]: “A (“A” refers to AUC @10 μM > 6)”, 0.406 µM and 222%.
For `Cc1c(Cl)sc2ccc(C(=O)N[C@H](C(=O)O)C(C)(C)C)c(OCc3ccc(OC(F)(F)F)cc3)c12` [Compound 34-4] the same measures were “A (“A” refers to AUC @10 μM > 6)”, 0.281 µM and 159%.
The matching figures for `Cc1c(Cl)sc2ccc(C(=O)N[C@H](C(=O)O)C3(C)CC3)c(OCc3ccc(OC(F)(F)F)cc3)c12` [Compound 34-5, (S)-2-(2-chloro-3-methyl-4-((4-(trifluoromethoxy)benzyl)oxy)-benzo[b]thiophene-5-carboxamido)-2-(1-methylcyclopropyl)acetic acid]: “A (“A” refers to AUC @10 μM > 6)”, 0.509 µM and 106%.
For the compound `Cc1c(Cl)sc2ccc(C(=O)N[C@H](C(=O)O)C3(C)CCC3)c(OCc3ccc(OC(F)(F)F)cc3)c12` [Compound 34-6, (S)-2-(2-chloro-3-methyl-4-((4-(trifluoromethoxy)benzyl)oxy)-benzo[b]thiophene-5-carboxamido)-2-(1-methylcyclobutyl)acetic acid], the “TECC24 AUC fold over DMSO” value in experiment [1] is listed as “A (“A” refers to AUC @10 μM > 6)”. In experiment [2], this compound had an EC50 of 1.19 µM and an Emax of 155%.
Turning to `Cc1c(Cl)sc2ccc(C(=O)N[C@H](C(=O)O)C3(C)CC3)c(OCc3ccc(C(F)(F)F)cc3)c12` [Compound 34-7, (S)-2-(2-chloro-3-methyl-4-((4-(trifluoromethyl)benzyl)oxy)-benzo[b]thiophene-5-carboxamido)-2-(1-methylcyclopropyl)acetic acid], in experiment [1], the “TECC24 AUC fold over DMSO” value was “A (“A” refers to AUC @10 μM > 6)”. In experiment [2], the EC50 is 0.612 µM and the Emax was 84.2%.
